According to PubChem BioAssay AID330 (DTP/NCI, 2004):
Values joined by “and” are separate entries in the source; they are usually repeats but may differ in a detail not shown here. Equal entries are not always repeated. Inconclusive results and toxic doses are left out. The calls were made as follows: active = survival T/C of 150% or more; inactive = T/C below 125% in these data.

System: P388 leukemia ip, CD2F1 mice, survival T/C
Assay: NCI In Vivo Anticancer Drug Screen. Data for tumor model P388 Leukemia (intraperitoneal) in CD2F1 (CDF1) mice
Settings: endpoint: median survival time, higher = longer survival
In short: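 Mice carrying the transplanted tumor received test compound or vehicle. Survival was recorded in each group, and the value is the treated-group measurement divided by that of the vehicle-treated control group.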

[1] = dose: 50.0 mg/kg/injection, schedule: Q01DX009 (ip), vehicle: Klucel (hydroxypropylcellulose) (HPC)
[2] = dose: 100.0 mg/kg/injection, schedule: Q01DX009 (ip), vehicle: Klucel (hydroxypropylcellulose) (HPC)
[3] = dose: 200.0 mg/kg/injection, schedule: Q01DX009 (ip), vehicle: Klucel (hydroxypropylcellulose) (HPC)
[4] = dose: 50.0 mg/kg/injection, schedule: Q01DX005 (ip), vehicle: Klucel (hydroxypropylcellulose) (HPC)
[5] = dose: 100.0 mg/kg/injection, schedule: Q01DX005 (ip), vehicle: Klucel (hydroxypropylcellulose) (HPC)
[6] = dose: 200.0 mg/kg/injection, schedule: Q01DX005 (ip), vehicle: Klucel (hydroxypropylcellulose) (HPC)
[7] = dose: 12.5 mg/kg/injection, schedule: Q01DX009 (ip), vehicle: saline with Tween-80
[8] = dose: 25.0 mg/kg/injection, schedule: Q01DX009 (ip), vehicle: saline with Tween-80
[9] = dose: 50.0 mg/kg/injection, schedule: Q01DX005 (ip), vehicle: saline
[10] = dose: 100.0 mg/kg/injection, schedule: Q01DX005 (ip), vehicle: saline
[11] = dose: 50.0 mg/kg/injection, schedule: Q04DX003 (ip), vehicle: saline with Tween-80
[12] = dose: 100.0 mg/kg/injection, schedule: Q04DX003 (ip), vehicle: saline with Tween-80

Measured: T/C

c1ccc(CNc2ccnc3c2ccc2ccccc23)cc1
inactive: dose: 100.0 mg/kg/injection, schedule: Q01DX001 (ip), vehicle: Klucel (hydroxypropylcellulose) (HPC) 100 % of control | dose: 200.0 mg/kg/injection, schedule: Q01DX001 (ip), vehicle: Klucel (hydroxypropylcellulose) (HPC) 97 % of control | dose: 400.0 mg/kg/injection, schedule: Q01DX001 (ip), vehicle: Klucel (hydroxypropylcellulose) (HPC) 100 % of control

CCCCCCCCCCCCCCCCS(=O)(=O)N/N=C(\c1ccc(O)c(OC)c1)N1CCOCC1
inactive: [1] 110 % of control | [2] 101 % of control | [3] 96 % of control

O=C(/C=C/c1ccc2c(c1)OCO2)c1cc(Cl)ccc1O
inactive: dose: 50.0 mg/kg/injection, schedule: Q01DX005 (ip), vehicle: saline with Tween-80 93 % of control | dose: 100.0 mg/kg/injection, schedule: Q01DX005 (ip), vehicle: saline with Tween-80 98 % of control | dose: 200.0 mg/kg/injection, schedule: Q01DX005 (ip), vehicle: saline with Tween-80 102 % of control

CCOCCNc1ncnc2c1cnn2C
inactive: dose: 12.5 mg/kg/injection, schedule: Q04DX003 (ip), vehicle: saline 91 % of control | dose: 25.0 mg/kg/injection, schedule: Q04DX003 (ip), vehicle: saline 88 % of control | dose: 50.0 mg/kg/injection, schedule: Q04DX003 (ip), vehicle: saline 93 % of control | dose: 100.0 mg/kg/injection, schedule: Q04DX003 (ip), vehicle: saline 95 % of control

O=c1oc2ccccc2cc1S(=O)(=O)c1ccc(Cl)cc1
inactive: dose: 60.0 mg/kg/injection, schedule: Q01DX005 (ip), vehicle: saline with Tween-80 91 % of control | dose: 120.0 mg/kg/injection, schedule: Q01DX005 (ip), vehicle: saline with Tween-80 92 % of control | dose: 240.0 mg/kg/injection, schedule: Q01DX005 (ip), vehicle: saline with Tween-80 91 % of control

O=C(COc1cccc2c(=O)cc(-c3ccccc3)oc12)OCCN1CCOCC1
inactive: [4] 98 % of control | [5] 104 % of control | [6] 91 % of control

CCOC(=O)C(N)CSC (stereo not drawn)
inactive: dose: 50.0 mg/kg/injection, schedule: Q01DX009 (ip), vehicle: water 97 % of control | dose: 200.0 mg/kg/injection, schedule: Q01DX009 (ip), vehicle: water 103 % of control | dose: 400.0 mg/kg/injection, schedule: Q01DX009 (ip), vehicle: water 106 % of control

O=c1c2ccccc2[nH]c2c([N+](=O)[O-])ccc(Oc3ccc(CCc4ccc(Oc5ccc([N+](=O)[O-])c6[nH]c7ccccc7c(=O)c56)cc4)cc3)c12
inactive: dose: 6.25 mg/kg/injection, schedule: Q01DX009 (ip), vehicle: saline with Tween-80 101 % of control | [7] 100 % of control | [8] 100 % of control | dose: 200.0 mg/kg/injection, schedule: Q01DX009 (ip), vehicle: saline with Tween-80 91 % of control

CO/C1=C\C(C)=C\C(C)C(O)C(C)C/C(C)=C/C=C/C(OC)C(C(C)C(O)C(C)C(=O)/C=C/C(C)C(C)O)OC1=O (stereo not drawn)
inactive: dose: 6.25 mg/kg/injection, schedule: Q01DX005 (ip), vehicle: other 108 % of control | dose: 12.5 mg/kg/injection, schedule: Q01DX005 (ip), vehicle: other 98 % of control | dose: 25.0 mg/kg/injection, schedule: Q01DX005 (ip), vehicle: other 103 % of control | dose: 25.0 mg/kg/injection, schedule: Q01DX005 (ip), vehicle: saline + Tween-80 + alcohol 103 % of control | dose: 50.0 mg/kg/injection, schedule: Q01DX005 (ip), vehicle: other 106 % of control | dose: 50.0 mg/kg/injection, schedule: Q01DX005 (ip), vehicle: saline + Tween-80 + alcohol 94 % of control | dose: 100.0 mg/kg/injection, schedule: Q01DX005 (ip), vehicle: saline + Tween-80 + alcohol 94 % of control

CN(C)C(=S)S(=O)(=O)c1ccc(Cl)cc1
inactive: [7] 105 % of control | [8] 96 % of control | dose: 25.0 mg/kg/injection, schedule: Q04DX002 (ip), vehicle: Klucel (hydroxypropylcellulose) (HPC) 119 % of control | dose: 50.0 mg/kg/injection, schedule: Q01DX009 (ip), vehicle: saline with Tween-80 96 % of control | dose: 50.0 mg/kg/injection, schedule: Q04DX002 (ip), vehicle: Klucel (hydroxypropylcellulose) (HPC) 112 % of control

CNC(=S)N(C)CCCCN(C)C(=S)NC
inactive: dose: 50.0 mg/kg/injection, schedule: Q01DX009 (ip), vehicle: saline 102 % of control | dose: 100.0 mg/kg/injection, schedule: Q01DX009 (ip), vehicle: saline 105 % of control | dose: 200.0 mg/kg/injection, schedule: Q01DX009 (ip), vehicle: saline 100 % of control

C[Si](C)(C)CN1CCCC1
inactive: [9] 108 % of control | [10] 101 % of control

C=C(C)c1cc2cc(C(C)=O)ccc2o1
inactive: dose: 2.25 mg/kg/injection, schedule: Q01DX009 (ip), vehicle: Klucel (hydroxypropylcellulose) (HPC) 108 % of control | dose: 4.5 mg/kg/injection, schedule: Q01DX009 (ip), vehicle: Klucel (hydroxypropylcellulose) (HPC) 115 % of control | dose: 9.0 mg/kg/injection, schedule: Q01DX009 (ip), vehicle: Klucel (hydroxypropylcellulose) (HPC) 97 % of control | dose: 18.0 mg/kg/injection, schedule: Q01DX009 (ip), vehicle: Klucel (hydroxypropylcellulose) (HPC) 115 % of control | dose: 36.0 mg/kg/injection, schedule: Q01DX009 (ip), vehicle: Klucel (hydroxypropylcellulose) (HPC) 113 % of control

COc1cccc2c1C(=O)c1c(O)c3c(c(O)c1C2=O)C[C@@](O)(C(C)=O)C[C@@H]3OC(=O)CCN
inactive: dose: 0.78 mg/kg/injection, schedule: Q01DX009 (ip), vehicle: water 112 % of control | dose: 1.56 mg/kg/injection, schedule: Q01DX009 (ip), vehicle: water 110 % of control | dose: 3.13 mg/kg/injection, schedule: Q01DX009 (ip), vehicle: water 118 % of control | dose: 8.33 mg/kg/injection, schedule: Q01DX009 (ip), vehicle: water 123 % of control | dose: 12.5 mg/kg/injection, schedule: Q01DX009 (ip), vehicle: water 120 % of control | dose: 18.8 mg/kg/injection, schedule: Q01DX009 (ip), vehicle: water 101 % of control | dose: 25.0 mg/kg/injection, schedule: Q01DX009 (ip), vehicle: water 118 % of control

O=C(Oc1ccc[nH]c1=O)C1CCCCC1
inactive: [4] 108 % of control and 96 % of control | [5] 100 % of control and 89 % of control | [6] 102 % of control and 86 % of control | dose: 400.0 mg/kg/injection, schedule: Q01DX005 (ip), vehicle: Klucel (hydroxypropylcellulose) (HPC) 92 % of control and 97 % of control

Cc1nn(C(=O)c2ccncc2)c(C)c1N=Nc1ccc(S(=O)(=O)N=C(N)N)cc1
inactive: [1] 97 % of control | [2] 95 % of control | [3] 100 % of control

COc1ccc2c(c1)CCC1C=NOC21 (stereo not drawn)
inactive: [4] 97 % of control | [5] 103 % of control | [6] 97 % of control

COc1ccc(/C=N/N2CN(C(C)C(=O)O)C(O)(CCl)N=C2N)cc1OC (stereo not drawn)
inactive: dose: 60.0 mg/kg/injection, schedule: Q01DX005 (ip), vehicle: saline 108 % of control | dose: 120.0 mg/kg/injection, schedule: Q01DX005 (ip), vehicle: saline 114 % of control

COc1cc2c(cc1OC)C(Cc1ccccc1[N+](=O)[O-])=NCC2
inactive: dose: 25.0 mg/kg/injection, schedule: Q04DX003 (ip), vehicle: saline with Tween-80 99 % of control | [11] 100 % of control | [12] 114 % of control | dose: 200.0 mg/kg/injection, schedule: Q04DX003 (ip), vehicle: saline with Tween-80 100 % of control

CC(C)C(N)C(=O)NN (stereo not drawn)
inactive: [9] 110 % of control | [10] 105 % of control | dose: 200.0 mg/kg/injection, schedule: Q01DX005 (ip), vehicle: saline 110 % of control

CCCCC(CC)CCC(C)O (stereo not drawn)
inactive: [11] 100 % of control | [12] 109 % of control

CCc1nc(N)nc(N)c1-c1ccc(NCCCN)c(N)c1
inactive: dose: 12.5 mg/kg/injection, schedule: Q01DX005 (ip), vehicle: Klucel (hydroxypropylcellulose) (HPC) 101 % of control | dose: 25.0 mg/kg/injection, schedule: Q01DX005 (ip), vehicle: Klucel (hydroxypropylcellulose) (HPC) 106 % of control | [4] 110 % of control and 97 % of control

Nc1cc(=O)[nH]c(O)c1C(=O)O
inactive: [8] 95 % of control

N=c1c2ccccc2c2ccccc2n1O
inactive: dose: 50.0 mg/kg/injection, schedule: Q01DX001 (ip), vehicle: saline sonified 110 % of control | dose: 100.0 mg/kg/injection, schedule: Q01DX001 (ip), vehicle: saline sonified 90 % of control | dose: 200.0 mg/kg/injection, schedule: Q01DX001 (ip), vehicle: saline sonified 100 % of control
